These are literature values, as cited in patent US8735422B2, “Cationic pharmaceutically active ingredient containing composition, and methods for manufacturing and using” (Skinvisible Pharmaceuticals, Inc., priority 2009, dated 2014).

Like-named read-outs stand apart in the source and are kept apart here.

For data set [1] the following is noted: in vivo.
Setting [2] is: Table 4, value used for the calculation.

With `O=C(O)CCCCCCCCCCC(=O)O` [Dodecandioic], for the setting “Table 1”, the pK1 was 4.5 and the pK2 was 4.5.
Regarding `CCCCCCCCCCCC(=O)O` [Lauric Acid], the pK is listed as 5.3. Besides, the pK1 (Table 1) is reported as 5.3. The pK under setting [2] is listed as 5.30.
Regarding `CC(=O)O` [Acetic Acid], the pK1 (Table 1) is 4.76.
For `CCCCCCCCCCCCCCCCCC(=O)O` [Stearic Acid], the pK1 (Table 1) is listed as 7.0.
“Poly(vinylpyrrolidone/1-eicosene) [PVPE]”: the dermal toxicity entry in data set [1] was “no demonstrable dermal toxicity”.
Take “Poly(vinylpyrrolidone/1-hexadecene) [PVPH]”: in data set [1], the dermal toxicity entry is on record as “no demonstrable dermal toxicity”.
For the compound `O=C(O)[C@H](O)[C@@H](O)[C@H](O)[C@H](O)CO` [Gluconic Acid], the pK1 (Table 1) was 3.86.
For the compound `O=C(O)c1ccccc1` [Benzoic Acid], under “Table 1”, the pK1 is listed as 4.21.
Consider `CC(C)Cn1cnc2c(N)nc3ccccc3c21` [Imiquimod, reference compound], for which the pK under setting [2] is on record as 4.49.
